Calls of active or inactive are those of the source.
Tests used:
[1] = target: Melanocortin receptor 4 (Homo sapiens, UniProt P32245); experiment: inhibitors of MC4R cAMP signaling – cell-based, TR-FRET, biased antagonists, dose response (AID 602298); type: functional;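 further: antagonist potency against agonist-stimulated cAMP production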
[2] = cAMP pathway inhibition in counterscreen cell line – TR-FRET cAMP detection, counter-screen for MC4R biased antagonist project, dose response (AID 602305); type: functional, cell-based;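 further: U2OS cells stimulated with forskolin near its EC80 as the cAMP inducer; potency is for inhibition of forskolin-stimulated cAMP signaling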
[3] = target: T1, Bcl-2-related protein A1 (Mus musculus, UniProt Q07440); type: functional;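 further: confirmatory dose–response counterscreen on Bfl-1, used to check hits from a UBC13 polyubiquitin inhibitor campaign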
T1 sequence (Q07440 whole entry): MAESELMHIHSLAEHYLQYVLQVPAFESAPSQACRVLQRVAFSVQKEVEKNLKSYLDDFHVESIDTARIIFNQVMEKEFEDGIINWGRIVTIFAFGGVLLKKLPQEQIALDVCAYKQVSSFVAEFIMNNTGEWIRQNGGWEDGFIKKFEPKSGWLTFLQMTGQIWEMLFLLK

[4] = target: T2, Ubiquitin-conjugating enzyme E2 N (Homo sapiens, UniProt P61088); type: functional
T2 sequence (P61088 whole entry): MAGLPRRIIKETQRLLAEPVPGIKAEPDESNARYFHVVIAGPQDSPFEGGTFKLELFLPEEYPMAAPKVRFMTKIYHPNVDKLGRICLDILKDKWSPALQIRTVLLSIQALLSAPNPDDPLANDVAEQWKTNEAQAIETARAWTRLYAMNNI

[5] = target: T3, CAAX prenyl protease 2 (Saccharomyces cerevisiae S288c, UniProt Q03530); type: biochemical
T3 sequence (Q03530 whole entry): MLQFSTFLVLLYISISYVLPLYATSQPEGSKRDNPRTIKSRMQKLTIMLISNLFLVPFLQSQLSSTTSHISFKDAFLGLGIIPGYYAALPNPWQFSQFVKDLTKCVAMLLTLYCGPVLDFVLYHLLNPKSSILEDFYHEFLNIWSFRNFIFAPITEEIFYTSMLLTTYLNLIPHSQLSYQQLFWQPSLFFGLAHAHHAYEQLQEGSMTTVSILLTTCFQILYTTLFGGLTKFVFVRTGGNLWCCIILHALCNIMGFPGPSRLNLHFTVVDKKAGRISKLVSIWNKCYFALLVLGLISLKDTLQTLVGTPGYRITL

[6] = target: T2, Ubiquitin-conjugating enzyme E2 N; type: functional; remark: listed apart in the source
[7] = target: T4, Hexokinase HKDC1 (Homo sapiens, UniProt Q2TB90); experiment: inhibition of HKDC1 glucose phosphorylation – biochemical, W721R variant, dose response (AID 504729); type: functional
T4 sequence (Q2TB90 whole entry): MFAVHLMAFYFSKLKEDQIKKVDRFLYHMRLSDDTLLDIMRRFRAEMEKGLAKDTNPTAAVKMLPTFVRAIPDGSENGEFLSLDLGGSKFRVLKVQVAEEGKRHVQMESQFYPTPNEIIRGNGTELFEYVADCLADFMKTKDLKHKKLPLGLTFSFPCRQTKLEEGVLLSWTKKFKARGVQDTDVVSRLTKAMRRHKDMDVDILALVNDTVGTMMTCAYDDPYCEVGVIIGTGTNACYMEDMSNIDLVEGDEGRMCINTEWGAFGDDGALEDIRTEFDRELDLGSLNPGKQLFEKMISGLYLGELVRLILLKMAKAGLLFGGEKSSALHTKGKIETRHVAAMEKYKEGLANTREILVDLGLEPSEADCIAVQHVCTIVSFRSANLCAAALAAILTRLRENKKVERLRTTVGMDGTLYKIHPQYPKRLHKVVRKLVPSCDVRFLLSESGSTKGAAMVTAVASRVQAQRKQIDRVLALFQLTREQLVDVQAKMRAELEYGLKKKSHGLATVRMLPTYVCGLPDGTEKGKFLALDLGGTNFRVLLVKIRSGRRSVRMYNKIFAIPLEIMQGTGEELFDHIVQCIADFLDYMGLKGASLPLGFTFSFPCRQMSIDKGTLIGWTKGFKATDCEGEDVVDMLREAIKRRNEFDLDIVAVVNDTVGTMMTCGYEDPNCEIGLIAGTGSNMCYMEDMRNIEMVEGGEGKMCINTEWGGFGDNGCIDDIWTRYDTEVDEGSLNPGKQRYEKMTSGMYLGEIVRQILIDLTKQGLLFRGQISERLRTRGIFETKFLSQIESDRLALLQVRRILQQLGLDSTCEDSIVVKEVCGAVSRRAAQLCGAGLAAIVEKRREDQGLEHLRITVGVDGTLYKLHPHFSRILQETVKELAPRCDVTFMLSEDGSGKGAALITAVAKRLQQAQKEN

[8] = target: ATP-dependent molecular chaperone HSP82 (Candida albicans (strain WO-1) (Yeast), UniProt C4YTQ8); experiment: steroid-induced GRE reporter decrease in yeast – S. cerevisiae, luminescence, Hsp90 inhibitor project, dose response (AID 2400); type: functional, cell-based;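 further: beta-galactosidase luminescence from glucocorticoid response element reporter as proxy for Hsp90 function; inhibitor potency where signal loss means Hsp90 inhibition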
[9] = target: T5, Hepatocyte nuclear factor 4-alpha (Homo sapiens, UniProt P41235); type: functional, cell-based;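 further: biochemical luminescence-based dose-response counterscreen measuring inhibition of HNF4 dimerization, run alongside a screen for blockers of ABHD5–perilipin-5 interaction; split luciferase complementation of HNF4 fusion proteins in cell lysate measuring dimerization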
T5 sequence (P41235 whole entry): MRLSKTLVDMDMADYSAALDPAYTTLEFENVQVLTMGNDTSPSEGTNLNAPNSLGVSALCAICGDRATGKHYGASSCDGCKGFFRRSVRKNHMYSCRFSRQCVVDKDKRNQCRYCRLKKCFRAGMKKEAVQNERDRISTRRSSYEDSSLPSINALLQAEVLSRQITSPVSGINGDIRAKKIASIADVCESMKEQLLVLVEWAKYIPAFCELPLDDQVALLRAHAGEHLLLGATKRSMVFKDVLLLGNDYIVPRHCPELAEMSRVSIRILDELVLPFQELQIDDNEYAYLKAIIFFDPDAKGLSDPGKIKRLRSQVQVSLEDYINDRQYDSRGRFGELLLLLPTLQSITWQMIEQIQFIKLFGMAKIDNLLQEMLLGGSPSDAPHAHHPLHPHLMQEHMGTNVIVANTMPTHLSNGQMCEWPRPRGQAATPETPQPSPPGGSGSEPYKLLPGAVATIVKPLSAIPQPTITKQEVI

[10] = target: T6, DNA repair protein RAD52 homolog (Homo sapiens, UniProt P43351); type: functional, biochemical
T6 sequence (P43351 whole entry): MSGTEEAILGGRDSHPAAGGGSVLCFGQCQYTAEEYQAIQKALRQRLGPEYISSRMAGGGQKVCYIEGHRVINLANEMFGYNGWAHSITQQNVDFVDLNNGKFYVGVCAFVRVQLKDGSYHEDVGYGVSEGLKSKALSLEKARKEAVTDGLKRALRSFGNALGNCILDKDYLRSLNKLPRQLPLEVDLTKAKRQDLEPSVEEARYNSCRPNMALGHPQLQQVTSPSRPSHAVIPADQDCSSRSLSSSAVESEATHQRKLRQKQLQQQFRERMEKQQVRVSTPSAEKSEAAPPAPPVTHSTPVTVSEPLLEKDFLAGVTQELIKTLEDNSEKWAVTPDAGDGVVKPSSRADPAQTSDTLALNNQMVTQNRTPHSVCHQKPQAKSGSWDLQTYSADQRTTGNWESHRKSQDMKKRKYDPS

[11] = target: Paired box protein Pax-8 (Homo sapiens, UniProt Q06710); experiment: PAX8 transcriptional activity inhibition in RMG-I – RMG-I cells, luciferase, cherry-pick, dose response (AID 687027); type: functional, cell-based;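 further: luciferase reporter driven by Pax8 target thyroperoxidase promoter measured by SteadyGlo luminescence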
[12] = target: T7, Cytochrome P450 1A2 (Homo sapiens, UniProt P05177);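 further: PubChem cytochrome P450 panel assay, CYP1A2 panel member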
T7 sequence (P05177 whole entry): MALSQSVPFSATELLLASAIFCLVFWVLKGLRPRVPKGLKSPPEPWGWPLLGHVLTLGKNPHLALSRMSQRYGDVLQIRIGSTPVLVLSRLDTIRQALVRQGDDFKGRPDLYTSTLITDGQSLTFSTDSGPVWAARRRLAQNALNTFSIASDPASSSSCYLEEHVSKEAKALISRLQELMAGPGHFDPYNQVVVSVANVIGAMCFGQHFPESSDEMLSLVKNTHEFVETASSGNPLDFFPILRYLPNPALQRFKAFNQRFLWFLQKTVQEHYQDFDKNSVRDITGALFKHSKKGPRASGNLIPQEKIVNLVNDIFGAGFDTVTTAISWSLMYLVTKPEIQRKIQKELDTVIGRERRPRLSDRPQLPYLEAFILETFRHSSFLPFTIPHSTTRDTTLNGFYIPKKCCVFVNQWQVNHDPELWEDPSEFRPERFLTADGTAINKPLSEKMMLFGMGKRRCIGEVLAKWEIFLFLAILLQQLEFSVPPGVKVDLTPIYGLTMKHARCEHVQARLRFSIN

[13] = target: Cytochrome P450 2C9 (Homo sapiens, UniProt P11712)
[14] = target: T8, Apoptotic protease-activating factor 1 (Homo sapiens, UniProt O14727); experiment: SAR analysis of small molecule Activators of Apaf-1 in a Fluorescent assay.; type: functional; conditions: read-out: EC50_Mean;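 further: caspase-3 cleavage of fluorogenic Rh110 DEVD substrate downstream of apoptosome activation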
T8 sequence (O14727 whole entry): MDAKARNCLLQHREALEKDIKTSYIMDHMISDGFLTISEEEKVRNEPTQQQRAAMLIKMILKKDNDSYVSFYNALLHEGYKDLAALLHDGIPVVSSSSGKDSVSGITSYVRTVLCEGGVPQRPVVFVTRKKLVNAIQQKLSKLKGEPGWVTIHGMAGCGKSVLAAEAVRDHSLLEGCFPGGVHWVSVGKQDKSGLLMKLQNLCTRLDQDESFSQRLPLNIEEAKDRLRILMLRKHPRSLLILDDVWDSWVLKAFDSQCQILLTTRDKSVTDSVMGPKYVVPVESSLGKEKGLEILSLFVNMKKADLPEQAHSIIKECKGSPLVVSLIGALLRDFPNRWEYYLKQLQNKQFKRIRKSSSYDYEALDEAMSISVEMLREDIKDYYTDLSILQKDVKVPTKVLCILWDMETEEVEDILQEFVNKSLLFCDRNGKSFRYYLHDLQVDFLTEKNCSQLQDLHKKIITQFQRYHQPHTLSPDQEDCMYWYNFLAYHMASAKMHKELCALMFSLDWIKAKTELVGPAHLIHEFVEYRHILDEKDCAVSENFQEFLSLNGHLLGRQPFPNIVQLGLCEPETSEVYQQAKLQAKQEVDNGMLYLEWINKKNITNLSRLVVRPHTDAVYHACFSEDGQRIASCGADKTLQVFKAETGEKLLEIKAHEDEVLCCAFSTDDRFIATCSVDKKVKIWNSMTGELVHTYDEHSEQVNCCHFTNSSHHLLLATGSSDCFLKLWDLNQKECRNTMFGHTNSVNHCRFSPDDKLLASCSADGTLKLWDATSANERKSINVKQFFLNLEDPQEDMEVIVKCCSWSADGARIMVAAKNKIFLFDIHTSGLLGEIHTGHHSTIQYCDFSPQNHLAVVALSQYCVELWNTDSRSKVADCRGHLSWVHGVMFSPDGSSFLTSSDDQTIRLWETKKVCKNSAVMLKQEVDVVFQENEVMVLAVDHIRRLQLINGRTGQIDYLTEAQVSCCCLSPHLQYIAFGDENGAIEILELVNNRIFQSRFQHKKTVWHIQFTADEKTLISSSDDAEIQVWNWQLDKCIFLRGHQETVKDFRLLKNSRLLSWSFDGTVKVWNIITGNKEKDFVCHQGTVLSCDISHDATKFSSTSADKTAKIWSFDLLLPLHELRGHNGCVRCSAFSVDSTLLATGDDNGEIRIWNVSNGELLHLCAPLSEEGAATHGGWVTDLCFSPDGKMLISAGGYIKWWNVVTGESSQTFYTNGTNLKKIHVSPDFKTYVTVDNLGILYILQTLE

Chain of Melanocortin receptor 4 (P32245 whole entry): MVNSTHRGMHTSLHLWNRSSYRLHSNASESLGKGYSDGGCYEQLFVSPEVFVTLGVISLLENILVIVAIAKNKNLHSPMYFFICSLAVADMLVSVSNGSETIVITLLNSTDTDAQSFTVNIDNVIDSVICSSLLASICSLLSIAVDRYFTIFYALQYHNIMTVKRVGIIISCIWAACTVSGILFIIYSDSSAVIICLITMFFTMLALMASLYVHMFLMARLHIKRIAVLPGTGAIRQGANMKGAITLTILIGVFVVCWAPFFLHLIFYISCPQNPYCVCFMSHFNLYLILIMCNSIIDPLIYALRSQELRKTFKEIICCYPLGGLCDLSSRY
Chain of Cytochrome P450 2C9 (P11712 whole entry): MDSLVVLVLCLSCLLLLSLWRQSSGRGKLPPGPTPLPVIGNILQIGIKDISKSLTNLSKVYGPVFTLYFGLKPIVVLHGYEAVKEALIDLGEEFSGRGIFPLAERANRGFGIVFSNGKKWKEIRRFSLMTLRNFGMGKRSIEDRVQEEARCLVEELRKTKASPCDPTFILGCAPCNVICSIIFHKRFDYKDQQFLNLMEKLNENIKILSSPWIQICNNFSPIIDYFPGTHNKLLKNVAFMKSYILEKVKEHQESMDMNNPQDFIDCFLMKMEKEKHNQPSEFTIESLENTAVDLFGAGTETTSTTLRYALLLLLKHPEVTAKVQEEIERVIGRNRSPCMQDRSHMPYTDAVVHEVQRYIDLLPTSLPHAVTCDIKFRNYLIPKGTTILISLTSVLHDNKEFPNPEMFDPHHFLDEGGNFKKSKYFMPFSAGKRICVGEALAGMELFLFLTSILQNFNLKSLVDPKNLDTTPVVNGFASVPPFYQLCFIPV
Chain of ATP-dependent molecular chaperone HSP82 (C4YTQ8 whole entry, the tested form may be a part): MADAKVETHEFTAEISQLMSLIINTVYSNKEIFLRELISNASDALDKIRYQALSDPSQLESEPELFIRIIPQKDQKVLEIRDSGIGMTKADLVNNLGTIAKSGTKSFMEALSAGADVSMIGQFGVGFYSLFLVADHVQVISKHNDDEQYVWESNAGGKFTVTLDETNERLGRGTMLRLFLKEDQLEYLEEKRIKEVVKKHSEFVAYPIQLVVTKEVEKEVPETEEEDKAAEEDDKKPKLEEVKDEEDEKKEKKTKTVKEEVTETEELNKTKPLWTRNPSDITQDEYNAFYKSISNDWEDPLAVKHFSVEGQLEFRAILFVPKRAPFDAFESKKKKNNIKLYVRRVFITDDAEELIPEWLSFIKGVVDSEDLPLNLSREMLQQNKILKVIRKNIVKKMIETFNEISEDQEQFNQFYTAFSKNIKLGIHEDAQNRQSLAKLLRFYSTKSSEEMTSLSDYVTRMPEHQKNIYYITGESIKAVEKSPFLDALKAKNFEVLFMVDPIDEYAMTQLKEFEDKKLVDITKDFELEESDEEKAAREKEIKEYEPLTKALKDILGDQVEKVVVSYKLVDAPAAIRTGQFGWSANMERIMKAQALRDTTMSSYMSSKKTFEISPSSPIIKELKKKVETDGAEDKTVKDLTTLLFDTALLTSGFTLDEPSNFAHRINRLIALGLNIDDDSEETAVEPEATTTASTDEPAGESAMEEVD
Chain of Paired box protein Pax-8 (Q06710 whole entry): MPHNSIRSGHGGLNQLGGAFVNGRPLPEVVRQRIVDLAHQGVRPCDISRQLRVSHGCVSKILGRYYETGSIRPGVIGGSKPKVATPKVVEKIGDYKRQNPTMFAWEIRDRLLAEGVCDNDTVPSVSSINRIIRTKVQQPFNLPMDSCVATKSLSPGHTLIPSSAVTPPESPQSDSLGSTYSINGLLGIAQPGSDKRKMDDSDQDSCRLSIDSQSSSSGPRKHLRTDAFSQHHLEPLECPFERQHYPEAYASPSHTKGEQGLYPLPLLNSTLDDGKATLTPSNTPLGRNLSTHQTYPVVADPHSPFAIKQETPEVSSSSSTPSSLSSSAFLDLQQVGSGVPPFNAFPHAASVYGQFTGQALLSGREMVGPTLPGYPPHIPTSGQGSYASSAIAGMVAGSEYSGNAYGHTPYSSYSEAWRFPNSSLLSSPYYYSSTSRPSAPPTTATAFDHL

IC50 [3]	IC50 [4]	AC50 [5]	IC50 [6]	IC50 [7]	EC50 [8]	IC50 [9]	AC50 [10]	AC50 [11]	AC50 [12]	AC50 [13]	EC50 [14]	Structure (SMILES)	IC50 [1]	IC50 [2]
												CCc1cc2ccc(OC)cc2nc1SCC(=O)N1CCN(C(=O)c2ccco2)CC1	> 64.6 µM (inactive)	> 64.6 µM (inactive)
> 20 µM (inactive)	3.01 µM (active)	5.69 µM (active)	2.2 µM (active)	8.99 µM (active)	> 150 µM (inactive)	23.5 µM (inactive)	1.7 µM (active)	5.69 µM (active)	15.8 µM (inconclusive)	15.8 µM (inconclusive)		[H]/N=C(\N/C(=N/[H])NCCCCCCNC(=N)NC(=N)Nc1ccc(Cl)cc1)Nc1ccc(Cl)cc1 [CHLORHEXIDINE]	2 µM (active)	
											> 100 µM (inactive)	Cc1cccc(C)c1N1C(=O)CC2(CC(c3ccc4c(c3)OCCO4)=NO2)C1=O (stereo not given)		

— ChEMBL document CHEMBL1201862, “PubChem BioAssay data set” (2004)
